Activity calls are given as the source filed them.
Tests used:
Kallikrein-7 = Kallikrein-7 (Homo sapiens, UniProt P49862); test: Fluorescence Intensity-based biochemical primary high throughput dose response assay to identify activators of kallikrein-7 (K7) zymogen.
Protein RecA = biological target: T1, Protein RecA (Mycobacterium tuberculosis, UniProt P9WHJ3); test: Fluorescence Cell-Free Homogeneous Dose Retest to Identify Inhibitors of RecA-Intein Splicing Activity. [Related pubchem assays (depositor defined):AID2097, AID2223, AID489010, AID492950]; format: functional
T1 sequence (P9WHJ3 whole entry): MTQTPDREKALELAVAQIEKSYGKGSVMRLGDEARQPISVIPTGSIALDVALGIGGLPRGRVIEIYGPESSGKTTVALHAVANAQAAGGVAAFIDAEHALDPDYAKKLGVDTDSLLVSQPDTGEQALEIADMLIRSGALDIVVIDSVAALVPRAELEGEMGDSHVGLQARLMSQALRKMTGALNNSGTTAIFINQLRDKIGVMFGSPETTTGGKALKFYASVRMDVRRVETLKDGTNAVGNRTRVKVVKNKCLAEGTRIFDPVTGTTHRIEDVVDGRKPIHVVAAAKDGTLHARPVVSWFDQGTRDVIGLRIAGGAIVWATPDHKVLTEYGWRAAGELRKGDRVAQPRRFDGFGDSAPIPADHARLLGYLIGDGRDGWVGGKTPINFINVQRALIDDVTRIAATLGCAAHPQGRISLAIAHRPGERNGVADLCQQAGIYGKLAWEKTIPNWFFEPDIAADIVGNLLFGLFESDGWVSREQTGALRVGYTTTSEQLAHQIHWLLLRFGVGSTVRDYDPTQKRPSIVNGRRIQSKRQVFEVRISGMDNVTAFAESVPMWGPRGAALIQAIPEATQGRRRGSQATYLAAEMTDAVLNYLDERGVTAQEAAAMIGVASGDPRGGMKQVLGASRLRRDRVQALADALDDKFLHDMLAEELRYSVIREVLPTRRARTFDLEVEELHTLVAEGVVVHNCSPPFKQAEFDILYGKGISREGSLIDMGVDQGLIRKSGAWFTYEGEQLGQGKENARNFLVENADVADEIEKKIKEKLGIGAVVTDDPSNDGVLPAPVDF

[1] = viability of PTEN-deleted HCT116 cells – cell-based, HCT116 PTEN knockout, dose response (AID 1047); format: functional;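 note: HCT116 colon tumor cells with PTEN knocked out; cells exposed to compound for 60 hours before readout; potency for loss of cell viability measured by luminescence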
[2] = NIH3T3 cell viability loss – ATP luminescence, mouse fibroblasts, counter-screen, dose response (AID 2010); format: functional, cell-based;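 note: cells exposed to compound for about 90 hours before reading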
Hexokinase HKDC1 = Hexokinase HKDC1 (Homo sapiens, UniProt Q2TB90); test: inhibition of HKDC1 glucose phosphorylation – biochemical, W721R variant, dose response (AID 504729); format: functional
[3] = Trypanosoma cruzi growth suppression in host cells – NIH3T3 host cells, beta-gal luminescence, confirmation (AID 2044); format: functional, cell-based;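 note: intracellular parasites grown in NIH/3T3 mouse fibroblasts as host cells; luminescent beta-galactosidase reporter signal from transgenic T. cruzi replicating inside host cells; inhibitors lower the luminescence signal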
[4] = biological target: T2, Heat shock factor protein 1 (Mus musculus, UniProt P38532); test: enhancement of HSF1-driven luciferase signal – cell-based, NIH3T3, luminescence, dose retest, confirmation (AID 435004); format: functional;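 note: stress induced by proteasome inhibitor MG132 added 30 min after compound; luciferase reporter driven by HSF1 response element in NIH3T3 cells; actives raise luminescence as potentiators of the MG132 stress response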
T2 sequence (P38532 whole entry): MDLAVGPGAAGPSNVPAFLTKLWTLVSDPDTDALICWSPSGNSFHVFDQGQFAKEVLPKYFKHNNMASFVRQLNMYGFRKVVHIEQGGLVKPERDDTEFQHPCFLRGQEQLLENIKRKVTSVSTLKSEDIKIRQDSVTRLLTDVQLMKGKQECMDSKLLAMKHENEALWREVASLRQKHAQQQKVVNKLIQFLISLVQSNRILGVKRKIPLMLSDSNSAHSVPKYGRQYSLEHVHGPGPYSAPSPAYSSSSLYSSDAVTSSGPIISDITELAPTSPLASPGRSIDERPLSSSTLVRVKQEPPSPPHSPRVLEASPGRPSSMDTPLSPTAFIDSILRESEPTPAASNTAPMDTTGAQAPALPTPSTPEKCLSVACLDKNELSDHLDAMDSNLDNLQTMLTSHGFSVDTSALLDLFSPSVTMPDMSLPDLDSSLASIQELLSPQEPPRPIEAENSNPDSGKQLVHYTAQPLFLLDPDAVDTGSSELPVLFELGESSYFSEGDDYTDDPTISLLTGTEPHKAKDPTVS

Fatty acid synthase = Fatty acid synthase (Homo sapiens, UniProt P49327); test: inhibition of human FAS-TE enzyme activity – biochemical, kinetic fluorescence intensity, dose response (AID 624326); format: functional;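 note: rate of fluorescence rise from hydrolysis of a fluorogenic O-methyl fluorescein ester substrate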
[5] = biological target: Heat shock protein HSP 90-alpha (Homo sapiens, UniProt P07900); format: functional, organism-based
[6] = biological target: DNA damage-inducible transcript 3 protein (Mus musculus, UniProt P35639); format: functional, Cricetulus griseus
Large T antigen = Large T antigen (Simian virus 40, UniProt P03070); format: functional, Betapolyomavirus macacae;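 note: Confirmatory-stage PubChem screen for compounds that inhibit SV40 T antigen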
Vero = test: cells; format: functional; conditions: Chlorocebus sabaeus
X-box-binding protein 1 = biological target: T3, X-box-binding protein 1 (Homo sapiens, UniProt P17861); format: functional, Cricetulus griseus;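 note: confirmatory dose-response counter-screen serving a CHOP assay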
T3 sequence (P17861 whole entry): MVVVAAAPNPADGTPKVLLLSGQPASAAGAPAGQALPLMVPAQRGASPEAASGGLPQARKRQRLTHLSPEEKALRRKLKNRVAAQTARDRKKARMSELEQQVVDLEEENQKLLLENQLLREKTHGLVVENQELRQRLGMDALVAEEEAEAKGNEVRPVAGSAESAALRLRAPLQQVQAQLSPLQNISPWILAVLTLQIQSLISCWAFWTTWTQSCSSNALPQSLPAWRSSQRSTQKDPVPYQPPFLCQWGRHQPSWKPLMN

Nonstructural protein 1 = Nonstructural protein 1 (Influenza A virus, UniProt Q194T2); format: functional, Influenza A virus (A/California/07/2009(H1N1))
[7] = Fluorescence-based cell-based high throughput dose response assay for inhibitors of the interaction of nucleotide-binding oligomerization domain containing 2 (NOD2) and the receptor-interacting serine-threonine kinase 2 (RIPK2).; format: functional; conditions: Homo sapiens
[8] = viability of HCT116 lacking mutant beta-catenin – cell-based, human colon tumor, dose response (AID 1045); format: functional;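 note: HCT116 colon tumor cells with beta catenin knocked out; cells exposed to compound for 60 hours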
[9] = DRD fibroblast viability loss – cell-based, non-viral oncogenic, luminescence, dose response (AID 1934); format: functional; conditions: Homo sapiens
[10] = viability loss in THP-1 monocytes – THP-1 cells, cytotoxicity control for Vif-APOBEC3G degradation inhibitor project, dose response (AID 1117359); format: functional; conditions: THP-1
BJ [11] = test: BJ-TERT-LT-ST fibroblast viability loss – cell-based, RAS-independent, luminescence, dose response (AID 1935); format: functional; conditions: Homo sapiens;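 note: BJ fibroblasts immortalized with TERT plus LT and ST oncogenes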
BJ [12] = test: BJ-TERT fibroblast viability loss – cell-based, RAS-independent, luminescence, dose response (AID 1933); format: functional; conditions: Homo sapiens
[13] = NIH-3T3 fibroblast cytotoxicity, dose response, cytotoxicity control, cell-based, fluorescence, Alamar Blue, secondary assay (AID 2327); format: functional;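 note: NIH-3T3 mouse fibroblasts cultured with fluconazole at 8 µg/mL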

Chain of DNA damage-inducible transcript 3 protein (P35639 whole entry): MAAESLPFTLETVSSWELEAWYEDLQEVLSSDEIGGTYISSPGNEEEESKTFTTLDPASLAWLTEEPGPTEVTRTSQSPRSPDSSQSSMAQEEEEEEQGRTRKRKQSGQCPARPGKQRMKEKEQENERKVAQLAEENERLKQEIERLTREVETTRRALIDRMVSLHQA
Chain of Nonstructural protein 1 (Q194T2 whole entry, the tested form may be a part): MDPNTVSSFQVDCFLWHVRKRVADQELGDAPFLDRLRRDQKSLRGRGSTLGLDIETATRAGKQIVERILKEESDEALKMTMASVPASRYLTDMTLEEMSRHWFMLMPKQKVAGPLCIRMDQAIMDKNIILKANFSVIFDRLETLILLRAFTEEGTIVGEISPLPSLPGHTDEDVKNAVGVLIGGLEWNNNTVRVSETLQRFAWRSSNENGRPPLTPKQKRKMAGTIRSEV
Chain of Fatty acid synthase (P49327 whole entry): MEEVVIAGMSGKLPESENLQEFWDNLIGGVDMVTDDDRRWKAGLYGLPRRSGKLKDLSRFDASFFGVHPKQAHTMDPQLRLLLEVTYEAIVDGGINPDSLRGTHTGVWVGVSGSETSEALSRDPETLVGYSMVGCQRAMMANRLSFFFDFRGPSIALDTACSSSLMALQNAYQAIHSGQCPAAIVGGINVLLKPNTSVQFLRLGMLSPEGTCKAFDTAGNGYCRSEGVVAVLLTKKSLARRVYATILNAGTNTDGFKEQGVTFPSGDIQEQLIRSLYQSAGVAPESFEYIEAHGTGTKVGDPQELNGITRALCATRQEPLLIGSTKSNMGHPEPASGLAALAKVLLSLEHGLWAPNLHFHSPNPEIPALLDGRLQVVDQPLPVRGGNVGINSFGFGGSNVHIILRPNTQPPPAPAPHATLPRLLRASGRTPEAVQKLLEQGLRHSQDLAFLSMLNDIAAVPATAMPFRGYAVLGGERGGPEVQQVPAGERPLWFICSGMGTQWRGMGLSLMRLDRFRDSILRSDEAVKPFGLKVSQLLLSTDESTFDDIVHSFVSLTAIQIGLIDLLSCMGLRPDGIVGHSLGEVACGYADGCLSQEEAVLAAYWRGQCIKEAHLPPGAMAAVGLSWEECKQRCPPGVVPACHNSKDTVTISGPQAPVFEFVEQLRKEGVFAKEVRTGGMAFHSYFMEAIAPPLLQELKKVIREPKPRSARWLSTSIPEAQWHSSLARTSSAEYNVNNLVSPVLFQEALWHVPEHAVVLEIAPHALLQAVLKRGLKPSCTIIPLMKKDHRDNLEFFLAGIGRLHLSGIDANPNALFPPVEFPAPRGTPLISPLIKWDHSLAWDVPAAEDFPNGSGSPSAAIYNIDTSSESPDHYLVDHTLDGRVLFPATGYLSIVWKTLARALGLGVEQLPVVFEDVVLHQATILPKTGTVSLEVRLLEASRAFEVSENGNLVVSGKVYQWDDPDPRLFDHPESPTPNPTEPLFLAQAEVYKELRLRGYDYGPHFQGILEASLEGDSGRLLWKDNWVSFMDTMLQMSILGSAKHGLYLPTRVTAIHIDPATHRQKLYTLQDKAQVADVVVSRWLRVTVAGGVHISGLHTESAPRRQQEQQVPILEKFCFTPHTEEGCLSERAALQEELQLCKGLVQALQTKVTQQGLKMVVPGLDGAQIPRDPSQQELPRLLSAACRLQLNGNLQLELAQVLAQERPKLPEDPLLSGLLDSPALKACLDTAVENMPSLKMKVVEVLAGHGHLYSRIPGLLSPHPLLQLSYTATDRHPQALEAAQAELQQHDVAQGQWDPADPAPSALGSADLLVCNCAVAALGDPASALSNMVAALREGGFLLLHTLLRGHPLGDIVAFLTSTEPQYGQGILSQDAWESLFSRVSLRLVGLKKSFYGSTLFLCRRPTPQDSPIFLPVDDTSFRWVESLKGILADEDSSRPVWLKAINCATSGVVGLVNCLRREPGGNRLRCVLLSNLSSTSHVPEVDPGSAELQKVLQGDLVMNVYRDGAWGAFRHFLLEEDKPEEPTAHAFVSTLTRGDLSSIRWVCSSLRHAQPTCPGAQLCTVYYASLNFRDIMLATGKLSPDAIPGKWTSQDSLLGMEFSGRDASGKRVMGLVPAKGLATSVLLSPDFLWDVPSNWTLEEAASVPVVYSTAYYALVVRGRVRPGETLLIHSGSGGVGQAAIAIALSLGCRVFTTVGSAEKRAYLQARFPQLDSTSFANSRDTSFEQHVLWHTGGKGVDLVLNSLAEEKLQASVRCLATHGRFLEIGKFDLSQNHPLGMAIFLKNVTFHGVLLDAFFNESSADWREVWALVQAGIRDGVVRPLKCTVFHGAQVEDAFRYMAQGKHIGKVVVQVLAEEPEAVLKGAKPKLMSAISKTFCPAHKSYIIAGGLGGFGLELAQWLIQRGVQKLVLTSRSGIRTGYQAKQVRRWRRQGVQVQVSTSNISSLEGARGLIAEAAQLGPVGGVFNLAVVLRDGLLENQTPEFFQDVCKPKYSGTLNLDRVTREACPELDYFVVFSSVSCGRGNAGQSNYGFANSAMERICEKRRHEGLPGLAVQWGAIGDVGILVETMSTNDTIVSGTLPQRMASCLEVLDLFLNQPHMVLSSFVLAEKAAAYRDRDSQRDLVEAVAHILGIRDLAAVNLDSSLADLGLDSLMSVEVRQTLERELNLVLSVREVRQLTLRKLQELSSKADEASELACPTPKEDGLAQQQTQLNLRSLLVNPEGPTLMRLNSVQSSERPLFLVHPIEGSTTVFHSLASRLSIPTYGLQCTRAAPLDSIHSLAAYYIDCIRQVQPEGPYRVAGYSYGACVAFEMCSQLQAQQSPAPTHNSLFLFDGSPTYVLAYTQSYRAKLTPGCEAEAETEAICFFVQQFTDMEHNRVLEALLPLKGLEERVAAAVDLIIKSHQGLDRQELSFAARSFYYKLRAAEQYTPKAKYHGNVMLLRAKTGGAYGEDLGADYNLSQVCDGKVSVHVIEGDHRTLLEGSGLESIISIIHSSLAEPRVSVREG
Chain of Hexokinase HKDC1 (Q2TB90 whole entry): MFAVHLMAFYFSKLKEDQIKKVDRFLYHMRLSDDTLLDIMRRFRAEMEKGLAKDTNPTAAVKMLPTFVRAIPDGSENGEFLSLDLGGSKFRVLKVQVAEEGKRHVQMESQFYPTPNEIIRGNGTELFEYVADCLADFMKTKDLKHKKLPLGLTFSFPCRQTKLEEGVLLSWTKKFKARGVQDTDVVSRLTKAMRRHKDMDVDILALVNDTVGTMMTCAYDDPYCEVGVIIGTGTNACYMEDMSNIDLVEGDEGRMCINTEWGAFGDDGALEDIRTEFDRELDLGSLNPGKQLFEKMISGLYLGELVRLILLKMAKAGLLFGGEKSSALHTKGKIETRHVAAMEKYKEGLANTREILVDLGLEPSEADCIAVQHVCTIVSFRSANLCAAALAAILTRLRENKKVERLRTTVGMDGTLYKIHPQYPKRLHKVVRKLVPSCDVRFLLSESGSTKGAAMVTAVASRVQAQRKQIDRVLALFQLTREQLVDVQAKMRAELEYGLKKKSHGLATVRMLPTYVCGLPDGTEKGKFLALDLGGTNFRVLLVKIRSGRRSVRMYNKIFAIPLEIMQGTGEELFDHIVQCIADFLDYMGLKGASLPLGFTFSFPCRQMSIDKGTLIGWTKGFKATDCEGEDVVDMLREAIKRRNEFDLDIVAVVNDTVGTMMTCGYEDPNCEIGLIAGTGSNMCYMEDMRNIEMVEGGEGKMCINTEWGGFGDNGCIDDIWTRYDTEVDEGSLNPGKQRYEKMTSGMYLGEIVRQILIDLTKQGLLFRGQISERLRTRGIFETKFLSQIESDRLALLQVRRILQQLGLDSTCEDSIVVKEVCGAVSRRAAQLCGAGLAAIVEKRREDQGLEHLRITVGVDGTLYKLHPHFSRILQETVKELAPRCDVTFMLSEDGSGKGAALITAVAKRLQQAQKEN
Chain of Large T antigen (P03070 whole entry): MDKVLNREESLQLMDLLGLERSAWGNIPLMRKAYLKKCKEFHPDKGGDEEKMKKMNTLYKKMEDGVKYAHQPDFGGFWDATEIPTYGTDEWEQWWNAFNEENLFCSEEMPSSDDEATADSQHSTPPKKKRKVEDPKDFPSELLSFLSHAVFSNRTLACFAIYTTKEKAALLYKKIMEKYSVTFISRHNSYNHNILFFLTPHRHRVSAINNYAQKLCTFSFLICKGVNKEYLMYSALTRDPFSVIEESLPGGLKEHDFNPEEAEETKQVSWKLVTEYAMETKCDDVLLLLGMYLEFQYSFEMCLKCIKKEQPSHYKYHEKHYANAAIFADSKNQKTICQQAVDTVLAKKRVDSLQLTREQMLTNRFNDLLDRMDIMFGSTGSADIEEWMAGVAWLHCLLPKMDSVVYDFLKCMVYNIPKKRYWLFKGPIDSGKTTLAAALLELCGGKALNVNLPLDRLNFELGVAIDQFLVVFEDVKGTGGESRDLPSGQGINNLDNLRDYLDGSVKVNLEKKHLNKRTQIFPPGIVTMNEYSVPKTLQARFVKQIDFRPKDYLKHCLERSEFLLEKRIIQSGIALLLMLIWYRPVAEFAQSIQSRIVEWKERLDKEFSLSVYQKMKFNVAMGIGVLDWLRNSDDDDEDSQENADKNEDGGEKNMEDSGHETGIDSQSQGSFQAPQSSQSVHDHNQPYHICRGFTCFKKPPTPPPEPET
Chain of Kallikrein-7 (P49862 whole entry): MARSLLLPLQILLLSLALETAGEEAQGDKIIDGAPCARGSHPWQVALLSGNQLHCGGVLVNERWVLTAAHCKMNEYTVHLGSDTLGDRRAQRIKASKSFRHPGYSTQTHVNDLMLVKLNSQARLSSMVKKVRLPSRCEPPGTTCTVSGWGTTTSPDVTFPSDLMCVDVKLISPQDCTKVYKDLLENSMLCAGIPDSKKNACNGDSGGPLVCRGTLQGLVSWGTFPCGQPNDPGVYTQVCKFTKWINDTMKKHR

O=c1[nH]c(N2CCOCC2)cc2ccccc12
EC50 (Kallikrein-7): > 69.6 µM (inactive)
EC50 (Protein RecA): > 380 µM (inconclusive)

O=[N+]([O-])c1ccc(Sc2nc3ccccc3o2)c([N+](=O)[O-])c1
EC50 [1]: 6.88 µM (active)
EC50 [2]: 1.81 µM (active)
IC50 (Hexokinase HKDC1): 37.4 µM (inactive)
EC50 [3]: 1.27 µM (active)
EC50 [4]: 11.7 µM (active)
IC50 (Fatty acid synthase): 10.1 µM (active)
AC50 [5]: 2.22 µM (active)
Absolute IC50 (CHOP) [6]: 10 µM
IC50 (Large T antigen): 84.9 µM (active)
CC50 (Vero): 4.12 µM (active)
Absolute IC50 (XBP1) (X-box-binding protein 1): 10 µM
IC50 (Nonstructural protein 1): 34.2 µM (active)
IC50 [7]: 1.92 µM (active)
EC50 [8]: 5.57 µM (active)
EC50 [9]: 4.54 µM (inconclusive)
CC50 [10]: 2.46 µM (active)
EC50 (BJ [11]): 5.55 µM (active)
EC50 (BJ [12]): 3.27 µM (active)
EC50 [13]: 5.82 µM (inconclusive)
EC50 (Protein RecA): 1.5 µM (active)

Source: ChEMBL document CHEMBL1201862, “PubChem BioAssay data set” (2004)
